Laboratory results: article PMC5626965, “Bifidobacterium bifidum Extracellular Sialidase Enhances Adhesion to the Mucosal Surface and Supports Carbohydrate Assimilation” (mBio, 2017)

How the values were obtained:
[1] = target: T1, His-SiaBb1 (Bifidobacterium bifidum, UniProt A0ABM7ET56); assay: fluorescence sialidase assay; format: biochemical; details: 50 μM recombinant protein, 30 min
T1 construct: gene BBBF_1779; His-tagged; native precursor 1,795 aa with Sec signal and C-terminal TM

[2] = target: T2, His-Sia (sialidase domain of SiaBb2, aa 187 to 553) (Bifidobacterium bifidum, UniProt A0A1Y1C8G4); assay: SPR, His-Sia immobilized on CM5 chip; details: HBS-EP pH 7.4, 25°C; binding decreased by 5 mM Neu5Ac2en; also glycoarray positive
T2 construct: conserved sialidase domain aa 187-553 of 835 aa precursor; N-terminal 6xHis tag; recombinant; biotinylated for glycoarray, immobilized on CM5 chip for SPR; GH33

[3] = target: T3, His-SiaBb2 (Bifidobacterium bifidum, UniProt A0A1Y1C8G4); assay: inhibition of sialidase activity, dose response; format: biochemical; details: maximal inhibition at […]
T3 construct: gene sia2; N-terminal 6xHis tag; native precursor 835 aa with Sec signal and C-terminal TM
T3 sequence (A0A1Y1C8G4 37-810): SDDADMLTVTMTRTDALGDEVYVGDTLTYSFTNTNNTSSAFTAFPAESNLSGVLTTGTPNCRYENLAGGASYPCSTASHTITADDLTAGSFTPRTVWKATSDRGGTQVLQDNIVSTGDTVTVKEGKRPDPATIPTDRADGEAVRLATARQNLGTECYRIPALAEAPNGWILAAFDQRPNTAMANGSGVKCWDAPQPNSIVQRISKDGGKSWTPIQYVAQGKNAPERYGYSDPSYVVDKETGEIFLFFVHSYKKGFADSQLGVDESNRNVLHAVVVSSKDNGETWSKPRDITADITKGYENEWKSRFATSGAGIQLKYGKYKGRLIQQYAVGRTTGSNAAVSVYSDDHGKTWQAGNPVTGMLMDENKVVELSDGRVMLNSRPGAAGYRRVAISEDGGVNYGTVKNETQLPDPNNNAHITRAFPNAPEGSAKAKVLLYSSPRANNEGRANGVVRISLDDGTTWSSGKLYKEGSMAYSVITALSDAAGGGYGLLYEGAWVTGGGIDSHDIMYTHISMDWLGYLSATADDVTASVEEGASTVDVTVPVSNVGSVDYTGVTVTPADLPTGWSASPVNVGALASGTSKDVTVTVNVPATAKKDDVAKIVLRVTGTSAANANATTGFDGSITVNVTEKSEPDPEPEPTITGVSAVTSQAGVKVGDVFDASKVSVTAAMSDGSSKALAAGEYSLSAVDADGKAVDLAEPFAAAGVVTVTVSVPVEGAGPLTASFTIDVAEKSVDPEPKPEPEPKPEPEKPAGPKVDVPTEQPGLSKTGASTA

T1 sequence (A0ABM7ET56 40-1795 limits assumed): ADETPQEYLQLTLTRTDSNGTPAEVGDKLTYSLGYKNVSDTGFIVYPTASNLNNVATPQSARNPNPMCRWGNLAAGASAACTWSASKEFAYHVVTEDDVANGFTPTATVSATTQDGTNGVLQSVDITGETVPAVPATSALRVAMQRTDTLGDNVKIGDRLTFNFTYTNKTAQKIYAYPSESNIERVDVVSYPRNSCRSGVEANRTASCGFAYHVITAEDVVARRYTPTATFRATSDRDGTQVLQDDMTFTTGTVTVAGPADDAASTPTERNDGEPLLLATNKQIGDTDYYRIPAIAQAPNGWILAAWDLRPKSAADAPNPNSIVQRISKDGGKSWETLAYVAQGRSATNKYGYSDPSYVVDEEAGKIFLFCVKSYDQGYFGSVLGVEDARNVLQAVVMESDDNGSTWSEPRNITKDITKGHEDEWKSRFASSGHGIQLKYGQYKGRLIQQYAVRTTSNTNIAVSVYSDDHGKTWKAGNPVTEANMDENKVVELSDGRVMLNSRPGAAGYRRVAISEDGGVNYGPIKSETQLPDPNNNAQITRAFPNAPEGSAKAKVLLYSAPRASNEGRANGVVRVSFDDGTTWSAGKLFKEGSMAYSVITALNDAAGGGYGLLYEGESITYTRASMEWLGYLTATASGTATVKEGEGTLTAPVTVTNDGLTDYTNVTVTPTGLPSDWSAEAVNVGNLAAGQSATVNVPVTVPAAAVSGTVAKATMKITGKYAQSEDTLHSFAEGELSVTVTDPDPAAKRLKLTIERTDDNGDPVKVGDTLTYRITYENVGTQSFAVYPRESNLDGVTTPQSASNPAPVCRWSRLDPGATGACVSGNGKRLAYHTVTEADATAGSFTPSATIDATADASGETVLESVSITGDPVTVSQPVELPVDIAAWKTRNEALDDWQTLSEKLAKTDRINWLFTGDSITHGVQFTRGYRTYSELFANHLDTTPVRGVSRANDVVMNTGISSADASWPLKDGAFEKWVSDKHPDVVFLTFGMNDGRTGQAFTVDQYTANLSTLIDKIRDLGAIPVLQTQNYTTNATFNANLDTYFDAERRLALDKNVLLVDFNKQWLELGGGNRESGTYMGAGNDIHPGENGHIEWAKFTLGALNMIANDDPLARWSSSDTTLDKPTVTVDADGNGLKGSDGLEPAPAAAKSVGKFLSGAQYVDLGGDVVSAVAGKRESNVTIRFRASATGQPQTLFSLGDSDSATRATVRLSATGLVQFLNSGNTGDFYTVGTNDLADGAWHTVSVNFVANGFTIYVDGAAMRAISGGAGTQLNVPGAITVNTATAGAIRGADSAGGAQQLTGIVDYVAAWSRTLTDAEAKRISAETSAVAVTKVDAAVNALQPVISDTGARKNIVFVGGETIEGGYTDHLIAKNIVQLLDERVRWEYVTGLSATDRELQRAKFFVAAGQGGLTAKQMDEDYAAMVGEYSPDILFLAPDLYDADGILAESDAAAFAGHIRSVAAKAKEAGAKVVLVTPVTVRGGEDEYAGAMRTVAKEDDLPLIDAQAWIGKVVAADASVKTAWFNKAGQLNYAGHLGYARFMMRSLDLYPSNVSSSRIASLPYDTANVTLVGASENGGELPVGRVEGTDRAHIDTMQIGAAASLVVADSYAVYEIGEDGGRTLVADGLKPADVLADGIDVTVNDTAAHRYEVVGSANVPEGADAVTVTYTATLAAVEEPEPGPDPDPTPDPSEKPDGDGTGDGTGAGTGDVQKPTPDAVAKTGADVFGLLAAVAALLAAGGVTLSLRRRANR

CC(=O)N[C@H]1[C@H]([C@H](O)[C@H](O)CO)OC(Oc2ccc3c(C)cc(=O)oc3c2)(C(=O)O)C[C@@H]1O (stereo partly drawn) [4-MU-Neu5Ac, 2′-(4-methylumbelliferyl)-α-D-N-acetylneuraminic acid]
fluorescence sialidase assay [1]: all sialidase peptides with the exception of His-ΔSia showed time-dependent enzymatic activity

CC(=O)N[C@H]1[C@H]([C@H](O)[C@H](O)CO)O[C@@](OC[C@H]2O[C@@H](O[C@H]3[C@H](O)[C@@H](O)C(O)O[C@@H]3CO)[C@H](O)[C@@H](O)[C@H]2O)(C(=O)O)C[C@@H]1O (stereo partly drawn) [6'SL]
MR at 10 μM (analyte/ligand, end of association) [2]: 1.3

CC(=O)N[C@H]1[C@H]([C@H](O)[C@H](O)CO)OC(C(=O)O)=C[C@@H]1O [Neu5Ac2en, N-acetyl-2,3-didehydro-2-deoxyneuraminic acid]
inhibition of sialidase activity, dose response [3]: Neu5Ac2en treatment inhibited the sialidase activity of His-SiaBb2 in a dose-dependent manner
